Data set [1] relates to LN-229 glioblastoma cells. Kind of data set: Antiproliferative activity, LN-229 cells. The class given is cell-based, human. Particulars: Homo sapiens, LN-229, 72 h, LN-229, 72 h incubation. How it is done: (§1) All prepared imidazo[4,5-b]pyridines were tested for their antiproliferative activity against the following cancer cell lines: LN-229—glioblastoma, Capan-1—pancreatic adenocarcinoma, HCT-116—colorectal carcinoma, NCI-H460—lung carcinoma, DND-41—acute lymphoblastic leukemia, HL-60—acute myeloid leukemia, K-562—chronic myeloid leukemia, and Z-138—non-Hodgkin lymphoma cancer cells. An overview of the results is presented in Table 2 as IC50 values (50% inhibitory concentration). An established antitumor drug, etoposide (ETO), was included for comparison.
(§2) For proliferation assays, the human cancer cell lines used in this manuscript, namely Capan-1, HCT-116, NCI-H460, LN-229, HL-60, K-562, and Z-138, were acquired from the American Type Culture Collection (ATCC, Manassas, VA, USA), while the DND-41 cell line was purchased from the Deutsche Sammlung von Mikroorganismen und Zellkulturen (DSMZ Leibniz-Institut, Braunschweig, Germany). Culture media were purchased from Gibco (Gibco Life Technologies, Merelbeke, Belgium) and supplemented with 10% fetal bovine serum (HyClone, Cytiva, Marlborough, MA, USA). Adherent cell lines LN-229, HCT-116, NCI-H460, and Capan-1 cells were seeded in 384-well tissue culture plates (Greiner, Kremsmünster, Austria) at a density between 500 and 1500 cells per well (500 cells per well for Capan-1, 1000 cells per well for LN-229 and HCT-116, and 1500 cells per well for NCI-H460). The cells were treated with seven different concentrations of the test compounds in a 5-fold dilution series ranging from 100 to 0.006 µM after overnight incubation. Suspension cell lines HL-60, K-562, Z-138, and DND-41 were seeded at densities ranging from 2500 to 5500 cells per well (2500 cells per well for HL-60, K-562, and Z-138, and 5500 cells per well for DND-41) in 384-well culture plates containing the test compounds at the same concentration points. All conditions were incubated for 72 h before measuring the cell viability by the CellTiter 96® AQueous Non-Radioactive Cell Proliferation Assay (Promega, Madison, WA, USA) according to the manufacturer’s instructions. After 3 h, absorbance of all conditions was measured at 490 nm using a SpectraMax Plus 384 (Molecular Devices, San Jose, CA, USA), and the OD values were used to calculate the 50% inhibitory concentration (IC50). Compounds were tested in two independent experiments.

Data set [2] concerns Capan-1 pancreatic adenocarcinoma cells. Kind of data set: Antiproliferative activity, Capan-1 cells. Particulars: Homo sapiens, CAPAN-1, 72 h, Capan-1, 72 h incubation. The class given is cell-based, human. As to the method:
as §1, §2

The test system of data set [3] is K-562 chronic myeloid leukemia cells. Kind of data set: Antiproliferative activity, K-562 cells. The class given is cell-based, human. Particulars: Homo sapiens, K562, 72 h, K-562, 72 h incubation. How it is done:
as §1, §2

The subject of data set [4] is DND-41 acute lymphoblastic leukemia cells. Kind of data set: Antiproliferative activity, DND-41 cells. The class given is cell-based, human. Particulars: Homo sapiens, DND41, 72 h, DND-41, 72 h incubation. As to the method: as §1, §2
The subject of data set [5] is HCT-116 colorectal carcinoma cells. Put plainly: Antiproliferative activity, HCT-116 cells. The class given is cell-based, human. As to conditions: Homo sapiens, HCT-116, 72 h, HCT-116, 72 h incubation. How it is done: as §1, §2
Data set [6] deals with HL-60 acute myeloid leukemia cells. Put plainly: Antiproliferative activity, HL-60 cells. As to conditions: Homo sapiens, HL-60, 72 h, HL-60, 72 h incubation. The class given is cell-based, human. As to the method:
as §1, §2

Data set [7] deals with Z-138 non-Hodgkin lymphoma cells. Put plainly: Antiproliferative activity, Z-138 cells. The class given is cell-based, human. Particulars: Homo sapiens, Z-138, 72 h, Z-138, 72 h incubation. How it is done:
as §1, §2

Data set [8] relates to NCI-H460 lung carcinoma cells. Put plainly: Antiproliferative activity, NCI-H460 cells. The class given is cell-based, human. Particulars: Homo sapiens, NCI-H460, 72 h, NCI-H460, 72 h incubation. As to the method:
as §1, §2

Data set [9] relates to human coronavirus HCoV-OC43. Kind of data set: Antiviral CPE assay, HCoV-OC43 in HEL 299. Particulars: HEL 299 host cells. The class given is cell-based.
The subject of the next data set is Zika virus (ZIKV). Put plainly: Antiviral CPE assay, ZIKV in VeroE6. The class given is cell-based. Particulars: VeroE6 host cells.
The subject of a further data set is VeroE6 cells. As to conditions: read-out: Cytotoxicity (CC50) Vero E6; uninfected Vero E6 cells.
In a further data set the test system is Sindbis virus (SINDV). Kind of data set: Antiviral CPE assay, SINDV in VeroE6. The class given is cell-based. Particulars: VeroE6 host cells.
The test system of data set [10] is herpes simplex virus-1 (HSV-1 KOS). Kind of data set: Antiviral CPE assay, HSV-1 in HEL 299. The class given is cell-based. Particulars: HEL 299 host cells.
A further data set concerns HEL 299 cells. Particulars: read-out: Cytotoxicity (CC50) HEL 299; uninfected HEL 299 cells.
In data set [11] the test system is human coronavirus HCoV-229E. Put plainly: organism not typed. The class given is cell-based, human coronavirus 229E. Particulars: HEL 299 host cells; read-out: Antiviral Activity (EC50) HCoV 229E HEL 299.
A further data set relates to yellow fever virus (YFV). Put plainly: microbe, parasite or virus in culture. As to conditions: VeroE6 host cells; read-out: Antiviral Activity (EC50) YFV VeroE6. The class given is cell-based.
Data set [12] has as its system Semliki Forest virus (SFV). Kind of data set: Antiviral CPE assay, SFV in VeroE6. Particulars: VeroE6 host cells. The class given is cell-based.
Another data set concerns NCI-H460 cells. Kind of data set: Cell cycle progression, NCI-H460 cells. The class given is cell-based, human. An excerpt: (§3) Lastly, the effects of lead compound 19 on the cell cycle progression of three cancer cell lines, namely HEp-2, NCI-H460, and LN-229, were explored.
(§4) Figure 7 The effects of lead compound 19 on cell cycle progression of NCI-H460 (left), LN-229 (middle), and Hep-2 (right) cells.

For data set [13], the system named is normal peripheral blood mononuclear cells (PBMC). Kind of data set: Toxicity in normal peripheral blood mononuclear cells. The class given is cell-based. An excerpt:
Figure 6 Toxicity of compounds 13 and 19 in normal cells.

The next data set concerns host cell lines. As to conditions: host cell lines of the antiviral assays.
The test system of the next data set is HEp-2 cells. Kind of data set: Cell cycle progression, HEp-2 cells. The class given is cell-based, human.
Excerpt: as §3, §4

In a further data set the test system is human cancer cell lines. Kind of data set: Antiproliferative activity, panel of human cancer cell lines. The class given is cell-based. How it is done: as §1, §2
The test system of the next data set is LN-229 cells. Kind of data set: Cell cycle progression, LN-229 cells. The class given is cell-based, human.
Excerpt: as §3, §4

pEC50, pIC50: −log10 of the molar value. Where two headings read alike, the source gives them in different places.

As for `Cn1c(-c2ccccc2)nc2cc(-c3ccc(C(N)=O)cc3)cnc21` [Compound 22, 4-(3-methyl-2-phenyl-3H-imidazo[4,5-b]pyridin-6-yl)benzamide], the melting point (usually the temperature, or range, at which the solid turns liquid) was more than 300 °C. The pIC50 in data set [1] is less than 4.00. The pIC50 in [2] was less than 4.00. For the same compound, in [3], the pIC50 is less than 4.00. This compound gave a pIC50 in data set [4] of less than 4.00. The compound also showed a pIC50 in data set [5] of less than 4.00. In data set [6], this compound gave a pIC50 of 4.15. In data set [7], this compound showed a pIC50 of 4.24. Also, in [8], the pIC50 is less than 4.00.
`CCOC(=O)[C@H]1O[C@@H]1C(=O)N[C@@H](CC(C)C)C(=O)NCCC(C)C` [Compound E64d]: the pEC50 (as a rule, −log10 of the EC50, conventionally taken in molar units) in [9] was 5.41; in the data set with Zika virus (ZIKV) it was 4.56; in the data set on Sindbis virus (SINDV) it was less than 4.00; in data set [10], less than 4.00; in [11], 5.70; with yellow fever virus (YFV) it was less than 4.00. Moreover, the pEC50 in data set [12] was less than 4.00. Also, the CC50 in the data set with VeroE6 cells and with HEL 299 cells was more than 100 µM each time.
For `Cn1c(-c2ccccc2)nc2cc(-c3ccc(O)cc3)cnc21` [Compound 19, 4-(3-methyl-2-phenyl-3H-imidazo [4,5-b]pyridin-6-yl)phenol], the pIC50 was 5.75 in data set [1]; 5.72 in [2]; 5.82 in data set [3]; 5.80 in data set [4]; 5.63 in data set [5]; 5.48 in [6]. Also, the pIC50 is 5.72 to 5.84 with human cancer cell lines (Capan-1, LN-229, DND-41, K-562 and Z-138 cell lines, read-out: IC50 range, lowest inhibitory concentrations); 5.37 to 5.84 with human cancer cell lines (most/majority of the tested cancer cell lines, read-out: IC50 range against most of the tested cell lines); 5.84 in data set [7]; 5.55 in data set [8]. Also, the “Effect on cell cycle progression” value in the data set on NCI-H460 cells, in the data set with HEp-2 cells and in the data set on LN-229 cells was “strong accumulation of cells in the G2/M phase” throughout. Also, the “Effect on viability of PBMC” value in data set [13] (10 µM) is listed as “little to no effect”; in data set [13] (100 µM (highest dose tested)) it was “negatively impacted the viability”. The “Cytotoxicity on host cell lines” value in the data set on host cell lines is “cytotoxicity was observed on all host cell lines, with the exception of the non-cancerous HEL 229 cells”.
